Experiments:
Pyricularia oryzae [1] = assay type: cell-based; conditions: 100 ppm in potato dextrose agar, 28 or 22° C., 48 hours
Pyricularia oryzae [2] = assay: whole plant or invertebrate; assay type: in vivo; conditions: for rank (control effect, protective value from lesion number): 100 ppm spray, rice seedling (Jikkoku) 4-leaf stage, lesion number on fourth leaf 6 days after inoculation; for pest or weed control at 100 ppm: Pyricularia oryzae, foliar, 144 h, read-out: rank (control effect, protective value from lesion number)
[3] = tested on: Alternaria alternata Japanese pear pathotype; assay type: cell-based; conditions: 100 ppm in potato dextrose agar, 28 or 22° C., 48 hours
Description: (§1) Test for Antifungal Activity
(§2) A test compound dissolved in acetone was mixed in a potato dextrose agar medium (manufactured by Nissui Seiyaku K. K.) so that the final concentration of the test compound was 100 ppm and then poured in a Petri dish. To this Perti dish after the agar was completely solidified, a cylindrical section prepared by punching a mycelial colony of each of plant pathogenic fungi cultured in another Petri dish by means of a cork borer was inoculated and cultured at 28 or 22° C. 48 Hours after the inoculation, the diameter of the mycelial colony was determined. Control percentages were calculated by comparing the diameter of the mycelial colony in a treated area with that in an untreated area. And, antifungal effect was ranked according to the following criterion.
(§3) A; control percentage ≧80%
(§4) B; control percentage 50 to 79%
(§5) C; control percentage <50%

Verticillium aibo-atrum = assay type: cell-based; conditions: 100 ppm in potato dextrose agar, 28 or 22° C., 48 hours
Description: as §1, §2, §3, §4, §5

Gibberella fujikuroi = assay type: cell-based; conditions: 100 ppm in potato dextrose agar, 28 or 22° C., 48 hours
Description: as §1, §2, §3, §4, §5

Rhizoctonia solani = assay type: cell-based; conditions: 100 ppm in potato dextrose agar, 28 or 22° C., 48 hours
Description: as §1, §2, §3, §4, §5

[4] = tested on: Colletotrichum atramentarium; assay type: cell-based; conditions: 100 ppm in potato dextrose agar, 28 or 22° C., 48 hours
Description: as §1, §2, §3, §4, §5

[5] = tested on: Fusarium oxysporum f. sp. lycopersici; assay type: cell-based; conditions: 100 ppm in potato dextrose agar, 28 or 22° C., 48 hours
Description: as §1, §2, §3, §4, §5

Glomerella cingalata = assay type: cell-based; conditions: 100 ppm in potato dextrose agar, 28 or 22° C., 48 hours
Description: as §1, §2, §3, §4, §5

Sclerotinia minor = assay type: cell-based; conditions: 100 ppm in potato dextrose agar, 28 or 22° C., 48 hours
Description: as §1, §2, §3, §4, §5

Botrytis cinerea = assay type: cell-based; conditions: 100 ppm in potato dextrose agar, 28 or 22° C., 48 hours
Description: as §1, §2, §3, §4, §5

Cochlioborus miyabeanus = assay type: cell-based; conditions: 100 ppm in potato dextrose agar, 28 or 22° C., 48 hours
Sphaerotheca fuliginea = assay: Test for control effect against powdery mildew of Cucurbitaceae (spray on cucumber seedlings); assay type: in vivo; conditions: 200 ppm spray, cucumber first foliage leaf, 10 days after inoculation
Description: Test for Control Effect Against Powdery Mildew of Cucurbitaceae
A spray liquid comprising a test compound whose concentration was adjusted to be 200 ppm by dilution with water was sprayed to a cucumber grown in a vinyl pot of 3 cm in diameter when its first foliage leaf was developed. The air-dried cucumber seedling was inoculated with a conidium suspension of Sphaerotheca fuliginea. Thereafter, the cucumber seedling was transferred in an air-conditioned greenhouse. 10 Days after the inoculation, the disease severity was observed. The protective value was calculated by comparing the disease severity in a treated area with that in an untreated area. Then, control effect was ranked according to the following criterion.
B; protective value 50 to 79%

Structure (SMILES): CCCCc1ccc2nc(C)c(C)c(O)c2c1 [Compound No. 28]
- rank (antifungal effect, control percentage of mycelial colony diameter) (Pyricularia oryzae [1]): B (control percentage 50 to 79%)
- rank (control effect, protective value from lesion number) (Pyricularia oryzae [2]): A (protective value ≧80%)
- rank (antifungal effect, control percentage of mycelial colony diameter) [3]: C (control percentage <50%)
- rank (antifungal effect, control percentage of mycelial colony diameter) (Verticillium aibo-atrum): A (control percentage ≧80%)
- rank (antifungal effect, control percentage of mycelial colony diameter) (Gibberella fujikuroi): C (control percentage <50%)
- rank (antifungal effect, control percentage of mycelial colony diameter) (Rhizoctonia solani): C (control percentage <50%)
- rank (antifungal effect, control percentage of mycelial colony diameter) [4]: B (control percentage 50 to 79%)
- rank (antifungal effect, control percentage of mycelial colony diameter) [5]: C (control percentage <50%)
- rank (antifungal effect, control percentage of mycelial colony diameter) (Glomerella cingalata): B (control percentage 50 to 79%)
- rank (antifungal effect, control percentage of mycelial colony diameter) (Sclerotinia minor): C (control percentage <50%)
- rank (antifungal effect, control percentage of mycelial colony diameter) (Botrytis cinerea): C (control percentage <50%)
- rank (antifungal effect, control percentage of mycelial colony diameter) (Cochlioborus miyabeanus): C (control percentage <50%)

Structure (SMILES): CC(=O)Oc1c(C)c(C)nc2ccc(Br)c(C)c12 [compound 197]
- rank (control effect, protective value from lesion number) (Pyricularia oryzae [2]): A (protective value ≧80%)
- rank (control effect, protective value from disease severity) (Sphaerotheca fuliginea): A (protective value ≧80%)

Structure (SMILES): CCC(C)c1ccc2nc(C)c(C)c(OC(C)=O)c2c1 (stereo not shown) [compound 55]
- rank (control effect, protective value from lesion number) (Pyricularia oryzae [2]): A (protective value ≧80%)
- rank (control effect, protective value from disease severity) (Sphaerotheca fuliginea): A (protective value ≧80%)

Structure (SMILES): CCc1cc(CC)c2nc(C)c(C)c(OC(C)=O)c2c1 [Compound No. 268]
- rank (control effect, protective value from lesion number) (Pyricularia oryzae [2]): A (protective value ≧80%)
- rank (control effect, protective value from disease severity) (Sphaerotheca fuliginea): B (protective value 50 to 79%)

Structure (SMILES): CCC(C)c1cc(Cl)c2nc(C)c(C)c(OC(C)=O)c2c1 (stereo not shown) [Compound No. 214, 4-acetoxy-6-s-butyl-8-chloro-2,3-dimethylquinoline]
- pest or weed control at 100 ppm (Pyricularia oryzae [2]): > 80%
- rank (control effect, protective value from disease severity) (Sphaerotheca fuliginea): A (protective value ≧80%)

Structure (SMILES): CC(=O)Oc1c(C)c(C)nc2ccc(Oc3ccccc3)cc12 [Compound No. 136]
- rank (control effect, protective value from lesion number) (Pyricularia oryzae [2]): A (protective value ≧80%)
- rank (control effect, protective value from disease severity) (Sphaerotheca fuliginea): A (protective value ≧80%)

Structure (SMILES): CCC(=O)Oc1c(C)c(C)nc2ccc(C(C)CC)cc12 (stereo not shown) [compound 56]
- rank (control effect, protective value from lesion number) (Pyricularia oryzae [2]): A (protective value ≧80%)
- rank (control effect, protective value from disease severity) (Sphaerotheca fuliginea): A (protective value ≧80%)

Structure (SMILES): CCCCc1ccc2nc(C)c(C)c(OC(=O)C3CC3)c2c1 [compound 31]
- rank (antifungal effect, control percentage of mycelial colony diameter) (Pyricularia oryzae [1]): A (control percentage ≧80%)
- rank (control effect, protective value from lesion number) (Pyricularia oryzae [2]): A (protective value ≧80%)
- rank (antifungal effect, control percentage of mycelial colony diameter) [3]: A (control percentage ≧80%)
- rank (antifungal effect, control percentage of mycelial colony diameter) (Verticillium aibo-atrum): A (control percentage ≧80%)
- rank (antifungal effect, control percentage of mycelial colony diameter) (Gibberella fujikuroi): A (control percentage ≧80%)
- rank (antifungal effect, control percentage of mycelial colony diameter) (Rhizoctonia solani): C (control percentage <50%)
- rank (antifungal effect, control percentage of mycelial colony diameter) [4]: A (control percentage ≧80%)
- rank (antifungal effect, control percentage of mycelial colony diameter) [5]: A (control percentage ≧80%)
- rank (antifungal effect, control percentage of mycelial colony diameter) (Glomerella cingalata): A (control percentage ≧80%)
- rank (antifungal effect, control percentage of mycelial colony diameter) (Sclerotinia minor): B (control percentage 50 to 79%)
- rank (antifungal effect, control percentage of mycelial colony diameter) (Botrytis cinerea): A (control percentage ≧80%)
- rank (antifungal effect, control percentage of mycelial colony diameter) (Cochlioborus miyabeanus): A (control percentage ≧80%)

Structure (SMILES): CCC(C)c1ccc2nc(C)c(C)c(OC(=O)OC)c2c1 (stereo not shown) [compound 65]
- rank (control effect, protective value from lesion number) (Pyricularia oryzae [2]): A (protective value ≧80%)
- rank (control effect, protective value from disease severity) (Sphaerotheca fuliginea): A (protective value ≧80%)

Structure (SMILES): CC(=O)Oc1c(C)c(C)nc2ccc(Br)cc12 [compound 185]
- rank (control effect, protective value from lesion number) (Pyricularia oryzae [2]): B (protective value 50 to 79%)
- rank (control effect, protective value from disease severity) (Sphaerotheca fuliginea): A (protective value ≧80%)

Structure (SMILES): CCC(C)c1ccc2nc(C)c(C)c(OC(=O)N(CC)CC)c2c1 (stereo not shown) [compound 72]
- rank (control effect, protective value from lesion number) (Pyricularia oryzae [2]): B (protective value 50 to 79%)
- rank (control effect, protective value from disease severity) (Sphaerotheca fuliginea): A (protective value ≧80%)

Structure (SMILES): CCCCCCCCOC(=O)Oc1c(C)c(C)nc2ccc(C(C)CC)cc12 (stereo not shown) [compound 67]
- rank (control effect, protective value from lesion number) (Pyricularia oryzae [2]): A (protective value ≧80%)
- rank (control effect, protective value from disease severity) (Sphaerotheca fuliginea): A (protective value ≧80%)

Structure (SMILES): CCC(C)c1cc(CCl)c2nc(C)c(C)c(OC(C)=O)c2c1 (stereo not shown) [Compound No. 344, 4-acetoxy-6-s-butyl-8-chloromethyl-2,3-dimethylquinoline]
- pest or weed control at 100 ppm (Pyricularia oryzae [2]): > 80%
- rank (control effect, protective value from disease severity) (Sphaerotheca fuliginea): A (protective value ≧80%)

Structure (SMILES): CCCCc1cc(Cl)c2nc(C)c(C)c(OC(C)=O)c2c1 [Compound No. 216]
- rank (control effect, protective value from lesion number) (Pyricularia oryzae [2]): A (protective value ≧80%)
- rank (control effect, protective value from disease severity) (Sphaerotheca fuliginea): B (protective value 50 to 79%)

Structure (SMILES): CCC(C)c1cc(CO)c2nc(C)c(C)c(OC(C)=O)c2c1 (stereo not shown) [Compound No. 340, 4-acetoxy-6-s-butyl-8-hydroxymethyl-2,3-dimethylquinoline]
- pest or weed control at 100 ppm (Pyricularia oryzae [2]): > 80%
- rank (control effect, protective value from disease severity) (Sphaerotheca fuliginea): A (protective value ≧80%)

Structure (SMILES): CCC(C)c1cc(C=O)c2nc(C)c(C)c(OC(C)=O)c2c1 (stereo not shown) [Compound No. 356, 4-acetoxy-6-s-butyl-8-formyl-2,3-dimethylquinoline]
- pest or weed control at 100 ppm (Pyricularia oryzae [2]): > 80%
- rank (control effect, protective value from disease severity) (Sphaerotheca fuliginea): A (protective value ≧80%)

Structure (SMILES): CCCCc1ccc2nc(C)c(CCC)c(OC(C)=O)c2c1 [compound 45]
- rank (control effect, protective value from lesion number) (Pyricularia oryzae [2]): A (protective value ≧80%)
- rank (control effect, protective value from disease severity) (Sphaerotheca fuliginea): B (protective value 50 to 79%)

Structure (SMILES): CC(=O)Oc1c(C)c(C)nc2ccc(OC(C)C)cc12 [compound 24]
- rank (control effect, protective value from lesion number) (Pyricularia oryzae [2]): B (protective value 50 to 79%)
- rank (control effect, protective value from disease severity) (Sphaerotheca fuliginea): A (protective value ≧80%)

Structure (SMILES): CC(=O)Oc1c(C)c(C)nc2c(Cl)cc(C(C)(C)C)cc12 [Compound No. 218]
- rank (control effect, protective value from lesion number) (Pyricularia oryzae [2]): A (protective value ≧80%)
- rank (control effect, protective value from disease severity) (Sphaerotheca fuliginea): A (protective value ≧80%)

Structure (SMILES): CCC(C)c1ccc2nc(C)c(C)c(OC(=O)c3ccccc3)c2c1 (stereo not shown) [compound 61]
- rank (control effect, protective value from lesion number) (Pyricularia oryzae [2]): A (protective value ≧80%)
- rank (control effect, protective value from disease severity) (Sphaerotheca fuliginea): B (protective value 50 to 79%)

Structure (SMILES): CCC(C)c1ccc2nc(C)c(C)c(OC(=O)Oc3ccccc3)c2c1 (stereo not shown) [compound 68]
- rank (control effect, protective value from lesion number) (Pyricularia oryzae [2]): A (protective value ≧80%)
- rank (control effect, protective value from disease severity) (Sphaerotheca fuliginea): A (protective value ≧80%)

Structure (SMILES): CC(=O)Oc1c(C)c(C)nc2ccc(C3CCCCC3)cc12 [Compound No. 112]
- rank (control effect, protective value from lesion number) (Pyricularia oryzae [2]): A (protective value ≧80%)
- rank (control effect, protective value from disease severity) (Sphaerotheca fuliginea): A (protective value ≧80%)

Structure (SMILES): CCc1cc(C(C)CC)cc2c(OC(C)=O)c(C)c(C)nc12 (racemic) [Compound No. 348]
- rank (control effect, protective value from lesion number) (Pyricularia oryzae [2]): A (protective value ≧80%)
- rank (control effect, protective value from disease severity) (Sphaerotheca fuliginea): A (protective value ≧80%)

Structure (SMILES): CC(=O)Oc1c(C)c(C)nc2ccc(CC(C)C)cc12 [compound 93]
- rank (control effect, protective value from lesion number) (Pyricularia oryzae [2]): A (protective value ≧80%)
- rank (control effect, protective value from disease severity) (Sphaerotheca fuliginea): A (protective value ≧80%)

Structure (SMILES): CC(=O)Oc1c(C)c(C)nc2c(C)cc(Br)cc12 [compound 195]
- rank (control effect, protective value from lesion number) (Pyricularia oryzae [2]): A (protective value ≧80%)
- rank (control effect, protective value from disease severity) (Sphaerotheca fuliginea): A (protective value ≧80%)
